Results from patent US9120786B2, “Triazine carboxamides as sodium channel blockers” (priority 2013, dated 2015).

Molecular target: human Nav1.7 (Homo sapiens (Human), UniProt Q15858)
Assay: FLIPR sodium dye assay (CoroNa Green) for sodium channel blocking activity in recombinant Nav1.7/HEK293 cells
Assay type: cell-based

human Nav1.7, sequence (Q15858 with tags, fused parts or gaps limits assumed): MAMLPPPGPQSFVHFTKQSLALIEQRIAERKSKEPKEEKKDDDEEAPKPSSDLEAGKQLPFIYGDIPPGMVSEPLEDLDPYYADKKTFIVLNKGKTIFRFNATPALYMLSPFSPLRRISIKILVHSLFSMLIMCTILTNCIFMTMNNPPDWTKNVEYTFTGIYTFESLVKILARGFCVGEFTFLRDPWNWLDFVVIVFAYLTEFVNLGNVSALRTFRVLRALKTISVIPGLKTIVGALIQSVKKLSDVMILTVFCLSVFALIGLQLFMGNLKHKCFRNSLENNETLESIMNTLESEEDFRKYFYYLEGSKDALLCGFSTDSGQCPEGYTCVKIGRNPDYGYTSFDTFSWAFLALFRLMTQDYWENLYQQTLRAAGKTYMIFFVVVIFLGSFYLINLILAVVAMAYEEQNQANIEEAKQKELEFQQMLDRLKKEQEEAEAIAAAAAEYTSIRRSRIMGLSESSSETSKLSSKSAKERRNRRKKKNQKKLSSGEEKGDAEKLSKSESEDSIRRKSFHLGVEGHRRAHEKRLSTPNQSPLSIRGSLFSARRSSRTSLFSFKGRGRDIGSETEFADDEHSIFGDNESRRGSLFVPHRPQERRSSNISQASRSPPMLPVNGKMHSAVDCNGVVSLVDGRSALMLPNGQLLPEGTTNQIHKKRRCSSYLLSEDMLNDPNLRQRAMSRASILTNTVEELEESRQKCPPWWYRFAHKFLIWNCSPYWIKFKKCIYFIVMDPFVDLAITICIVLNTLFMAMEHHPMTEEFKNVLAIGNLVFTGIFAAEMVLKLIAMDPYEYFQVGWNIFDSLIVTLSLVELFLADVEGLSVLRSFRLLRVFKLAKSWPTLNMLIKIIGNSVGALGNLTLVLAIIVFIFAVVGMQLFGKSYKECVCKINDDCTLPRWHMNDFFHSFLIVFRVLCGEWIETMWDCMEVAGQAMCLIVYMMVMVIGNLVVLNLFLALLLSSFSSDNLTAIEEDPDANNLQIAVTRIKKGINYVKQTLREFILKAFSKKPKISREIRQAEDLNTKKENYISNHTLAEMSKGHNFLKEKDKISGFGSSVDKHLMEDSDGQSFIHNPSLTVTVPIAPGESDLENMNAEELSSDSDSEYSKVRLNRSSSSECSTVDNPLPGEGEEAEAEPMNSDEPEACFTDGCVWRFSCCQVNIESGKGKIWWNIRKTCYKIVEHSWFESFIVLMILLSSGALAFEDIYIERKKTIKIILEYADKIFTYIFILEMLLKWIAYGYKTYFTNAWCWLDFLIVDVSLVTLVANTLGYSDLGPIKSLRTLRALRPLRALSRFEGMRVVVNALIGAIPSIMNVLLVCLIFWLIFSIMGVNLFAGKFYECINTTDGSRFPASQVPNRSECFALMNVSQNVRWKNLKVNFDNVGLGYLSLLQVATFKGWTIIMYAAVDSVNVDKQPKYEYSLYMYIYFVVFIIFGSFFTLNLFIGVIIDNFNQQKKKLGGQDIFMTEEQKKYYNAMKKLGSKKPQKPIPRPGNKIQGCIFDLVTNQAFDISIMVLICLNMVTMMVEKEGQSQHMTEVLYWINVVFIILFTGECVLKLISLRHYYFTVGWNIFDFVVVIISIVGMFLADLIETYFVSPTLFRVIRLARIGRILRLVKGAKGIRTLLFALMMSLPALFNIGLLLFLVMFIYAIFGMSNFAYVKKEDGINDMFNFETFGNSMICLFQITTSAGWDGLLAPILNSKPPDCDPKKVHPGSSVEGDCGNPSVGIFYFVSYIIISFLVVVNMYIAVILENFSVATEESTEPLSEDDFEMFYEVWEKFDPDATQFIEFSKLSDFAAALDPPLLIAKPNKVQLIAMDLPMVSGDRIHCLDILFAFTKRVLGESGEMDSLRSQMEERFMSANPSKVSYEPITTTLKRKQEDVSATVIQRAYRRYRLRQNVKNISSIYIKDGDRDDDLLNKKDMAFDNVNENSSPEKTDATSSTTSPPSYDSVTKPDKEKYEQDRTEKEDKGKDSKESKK

| Structure (SMILES) | IC50 [µM] |
| --- | --- |
| N#Cc1nc(N[C@H]2CCNC2=O)nc(-c2ccc(Oc3ccc(OC(F)(F)F)cc3)cc2)n1 [Compound 1, (S)-4-((2-oxopyrrolidin-3-yl)amino)-6-(4-(4-(trifluoromethoxy)phenoxy)phenyl)-1,3,5-triazine-2-carbonitrile] | 2.25 ± 0.37 |
| NC(=O)c1nc(N[C@H]2CCNC2=O)nc(-c2ccc(Oc3ccc(OC(F)(F)F)cc3)cc2)n1 [Compound 2, (S)-4-((2-oxopyrrolidin-3-yl)amino)-6-(4-(4-(trifluoromethoxy)phenoxy)phenyl)-1,3,5-triazine-2-carboxamide] | 0.326 ± 0.116 |
| CCN(c1nc(C(N)=O)nc(-c2ccc(Oc3ccc(OC(F)(F)F)cc3)cc2)n1)C(C)C [Compound 4, 4-(ethyl(isopropyl)amino)-6-(4-(4-(trifluoromethoxy)phenoxy)phenyl)-1,3,5-triazine-2-carboxamide] | > 20 |
| CCN(c1nc(C(N)=O)nc(-c2ccc(Oc3ccc(C(F)(F)F)cn3)cc2)n1)C(C)C [Compound 5, 4-(ethyl(isopropyl)amino)-6-(4-((5-(trifluoromethyl)pyridin-2-yl)oxy)phenyl)-1,3,5-triazine-2-carboxamide] | 0.645 ± 0.14 |
| N#Cc1nc(-c2ccc(Oc3ccc(C(F)(F)F)cn3)cc2)nc(N2CCOCC2)n1 [Compound 8, 4-morpholino-6-(4-((5-(trifluoromethyl)pyridin-2-yl)oxy)phenyl)-1,3,5-triazine-2-carbonitrile] | 8.09 ± 0.959 |
| NC(=O)c1nc(-c2ccc(Oc3ccc(OC(F)(F)F)cc3)cc2)nc(N2CCOCC2)n1 [Compound 9, 4-morpholino-6-(4-(4-(trifluoromethoxy)phenoxy)phenyl)-1,3,5-triazine-2-carboxamide] | 0.596 ± 0.102 |
| NC(=O)c1nc(-c2ccc(Oc3ccc(C(F)(F)F)cn3)cc2)nc(N2CCOCC2)n1 [Compound 10, 4-morpholino-6-(4-((5-(trifluoromethyl)pyridin-2-yl)oxy)phenyl)-1,3,5-triazine-2-carboxamide] | 0.353 ± 0.1 |
| NC(=O)c1nc(N)nc(N2CC(Oc3ccc(C(F)(F)F)cn3)C2)n1 [Compound 11, 4-amino-6-(3-((5-(trifluoromethyl)pyridin-2-yl)oxy)azetidin-1-yl)-1,3,5-triazine-2-carboxamide] | > 20 |
| NC(=O)c1nc(NCCO)nc(-c2ccc(Oc3ccc(C(F)(F)F)cn3)cc2)n1 [Compound 12, 4-((2-hydroxyethyl)amino)-6-(4-((5-(trifluoromethyl)pyridin-2-yl)oxy)phenyl)-1,3,5-triazine-2-carboxamide] | 0.243 ± 0.125 |
| NC(=O)c1nc(N)nc(-c2ccc(Oc3ccc(C(F)(F)F)cn3)cc2)n1 [Compound 13, 4-amino-6-(4-((5-(trifluoromethyl)pyridin-2-yl)oxy)phenyl)-1,3,5-triazine-2-carboxamide] | > 20 |
| NC(=O)c1nc(N[C@H]2CCNC2=O)nc(N2CC(Oc3ccc(C(F)(F)F)cn3)C2)n1 [Compound 14, (S)-4-((2-oxopyrrolidin-3-yl)amino)-6-(3-((5-(trifluoromethyl)pyridin-2-yl)oxy)azetidin-1-yl)-1,3,5-triazine-2-carboxamide] | > 20 |
